Results reported in patent US5420132A, “Substituted benzodioxins” (Adir et Compagnie, priority 1993, dated 1995).

How the values were obtained:
thoracic aorta of rats = experiment: Anticalcic activity (contraction induced by potassium chloride); parameters: species or system male Wistar rats; details: Rattus norvegicus; 60 mM KCl; 2 preparations, 8 concentrations; read-out: IC50, inhibition of thoracic aorta contraction induced by potassium chloride
Procedure: The anticalcic activity was studied in the thoracic aorta of male Wistar rats. Once they have been introduced into experimental vessels containing a physiological solution, the vascular rings are subjected to an initial tension of 2 g. The preparations are then placed in the presence of a hyperpotassic solution (60 mM of potassium chloride) in order to obtain a sustained contractile response. Increasing concentrations of the product being tested are then added for the period necessary to obtain a stable effect.
Each compound of the invention is thus tested in 2 preparations at 8 concentrations (10^-8 M to 3×10^-5 M) to obtain a concentration-effect curve and determine the IC50.

[1] = tested on: platelet aggregation (rabbit plasma rich in platelets); experiment: Measurement of antiaggregation activity (sodium arachidonate induced); type: cell-based; details: Oryctolagus cuniculus, sodium arachidonate (50 μ/ml), read-out: Minimum active concentration, inhibition of maximum non-reversible platelet aggregation
Procedure: Measurement of antiaggregation activity
In that study, the compounds of the invention (100 μ/ml) were tested with the aim of quantifying their ability to inhibit the maximum non-reversible platelet aggregation (rabbit plasma rich in platelets) induced by sodium arachidonate (50 μ/ml). Thus the minimum active concentration for the compound of Example 1 is 20 μM.

native human LDLs = experiment: Protective activity against LDL oxidation (electrophoretic method, FPLC, Cu2+ induced); type: biochemical; details: 10 μM; with Cu++; 24 hours
Procedure: Study of the protective activity against LDL oxidation (electrophoretic method)
The capacity of the compounds of the invention to decrease the proportions of oxidised LDLs was measured by incubating a preparation comprising native human LDLs, a Cu^2+ free radical generator, and the compounds to be tested for 24 hours. The oxidation products are determined by FPLC (Fast Protein Liquid Chromatography) in accordance with the method described by B. Vedie et al., Journal of Lipid Research, 32, 1359-1369, (1991). By that method it was possible to identify 5 peaks corresponding to different degrees of LDL oxidation. Peaks A and B correspond to the native forms of LDL and peaks C, D and E correspond to the different states of oxidation of the LDLs (peak E corresponding to the most oxidised form). The results are expressed as a percentage of the LDLs corresponding to those different states of oxidation.

[2] = tested on: Human red blood corpuscles; experiment: Measurement of haemolysis induced by AAPH; type: cell-based; details: Erythrocyte, 0.5 h, 10^-5 M, 30 minutes at 37° C.
Procedure: Measurement of haemolysis induced by AAPH
Human red blood corpuscles are placed for a period of 30 minutes at 37° C. in the presence of AAPH, which generates free radicals at a constant rate, and in the presence or absence of the compounds being studied. The optical density of the supernatant is measured at 403 nm compared with the control without AAPH. The percentage inhibition of haemolysis is calculated by comparison with the 100% haemolysis obtained for the AAPH control.

lipoxygenase = experiment: Measurement of lipoxygenase activities (B4 leukotriene release, calcium ionophore A 23 187); type: cell-based; details: 10 μM; rabbit granulocytes; average of 3
Procedure: Measurement of lipoxygenase activities The measurements are carried out on rabbit granulocytes. The isolated granulocytes are stimulated in vitro by the calcium ionophore A 23 187. The B4 leukotrienes released in the extracellular medium are measured by Radio Immuno Assay (RIA). The results (average of 3 independent measurements) are expressed as a percentage inhibition compared with the control.

[3] = Antihypoxic activity in vivo (time until first gasps); parameters: species or system mice (Swiss CD 1); details: 30 minutes before hypoxia, control 36 ± 4
Procedure: Male mice (Swiss CD 1 ) weighing from 25 to 30 g are, before any experiment, housed for one week under conditions customary for animals (20°-22° C., 55% humidity, light/darkness cycle 12/12, commercial feed and water as desired). The mice are placed in a box (7×5×5 cm) in which an atmosphere poor in oxygen is created by passing through a stream of air (96% N2, 4% O2, 12 l/min). The time taken until the first signs of suffocation (or "gasps") occur is measured. The mice receive a dose of the compounds to be tested by the intraperitoneal route 30 minutes before the hypoxia is induced. Vincamine is used as the reference drug.

5-HT2 receptors = experiment: Serotoninergic activity (competition with [3H]ketanserine); type: binding, rat (male Wistar, cerebral cortex membranes); details: 10 μM (n=3); [3H]ketanserine 0.5 nM, 40 min/25° C.
Procedure: The experiments are carried out on membranes prepared from the cerebral cortex of male Wistar rats (CERJ, le Genest St Isle). The binding measurements are carded out using ketanserine as reference compound. The conditions of the experiment are summarised below:
After incubation, the membranes are quickly filtered. The filtrates are then transferred to flasks containing scintillation liquid and the bound radioactivity is determined by a liquid scintillation counter (LS6000, Beckman). The affinity of the compounds of the invention for the 5-HT2 receptors is evaluated, at the concentration 10 μM (n=3), using competition experiments.

[4] = Hypolipaemic activity in hypercholesterolaemic mice; type: in vivo; details: 100 mg/kg p.o.; serum
Procedure: Groups each comprising 6 mice are rendered hypercholesterolaemic by a diet that is high in cholesterol and in cholic acid for 7 days. The compounds of the invention are administered p.o. (100 mg/kg) on the 6th and 7th day (half the dose being administered on day 6 and the other half on day 7). The animals are then left without food and drink for one night. The reduction in the concentration of cholesterol in the serum compared with hypercholesterolaemic control mice is then evaluated, as is also the reduction in concentration of lipoproteins (corresponding to the LDL-VLDL fractions), after precipitation by the addition of heparin to the serum, in the same hypercholesterolaemic mice compared with the control animals.

For `O=C(C1=COc2cc(O)ccc2O1)N1CCN(C(c2ccc(F)cc2)c2ccc(F)cc2)CC1` [Example 1, 6-HYDROXY-2-{4-[BIS(4-FLUOROPHENYL)METHYL]PIPERAZIN-1-YLCARBONYL}-1,4-BENZODIOXIN], the IC50 (thoracic aorta of rats) was 500 nM, the minimal effective concentration [1] was 20 µM and the “LDL form B separated by FPLC (native form), percentage of LDLs” value (native human LDLs) was 95%. For the same molecule, the “LDL oxidised form C separated by FPLC, percentage of LDLs” value (native human LDLs) was 5%, the inhibition at 10 µM [2] was 62% and the “Inhibiting activity (B4 leukotriene release)” value (lipoxygenase) was 62%. For the same molecule, the “Time until the first gasps occur” value ([3]; 2,5 mg/kg i.p.) was 108 s.

For `O=C(C1COc2cc(O)ccc2O1)N1CCN(C(c2ccc(F)cc2)c2ccc(F)cc2)CC1` (centres unmarked) [Example 3, 6-HYDROXY-2-{4-[BIS(4-FLUOROPHENYL)METHYL]PIPERAZIN -1-YLCARBONYL}-2,3-DIHYDRO-1,4-BENZODIOXIN], the inhibition at 10 µM [2] was 88%.

`O=C(Nc1ccccc1)C1COc2ccc(O)cc2O1` (centres unmarked) [Example 12, 7-HYDROXY-2-ANILINOCARBONYL-2,3-DIHYDRO-1,4-BENZOP DIOXIN] gave an inhibition at 10 µM [2] of 100%.

`O=C(Nc1ccccc1)C1=COc2ccc(O)cc2O1` [Example 13, 7-HYDROXY-2-ANILINOCARBONYL-1,4-BENZODIOXIN] gave an inhibition at 10 µM [2] of 100%.

For `O=C(Nc1ccccc1)C1=COc2cc(O)ccc2O1` [Example 10, 6-HYDROXY-2-ANILINOCARBONYL-1,4-BENZODIOXIN], the inhibition at 10 µM [2] was 100% and the “Time until the first gasps occur” value ([3]; 2,5 mg/kg i.p.) was 97 s.

For `CC(C)(Sc1cc(C(C)(C)C)c(O)c(C(C)(C)C)c1)Sc1cc(C(C)(C)C)c(O)c(C(C)(C)C)c1` [probucol, reference compound], the “LDL oxidised form D separated by FPLC, percentage of LDLs” value (native human LDLs) was 80% and the “LDL oxidised form E (most oxidised) separated by FPLC, percentage of LDLs” value (native human LDLs) was 20%.

With `CC[C@]12CCCN3CCc4c(n(c5ccccc45)[C@@](O)(C(=O)OC)C1)[C@@H]32` [Vincamine, reference compound] the “Time until the first gasps occur” value ([3]; 20 mg/kg i.p.) was 147 ± 14 s and the “Time until the first gasps occur” value ([3]; 2,5 mg/kg i.p.) was “inactive”.

`COc1ccc(CN2CCN(C(=O)C3COc4ccc(O)cc4O3)CC2)c(OC)c1OC` (centres unmarked) [Example 17, 7-HYDROXY-2-[4-(2,3,4-TRIMETHOXYBENZYL)PIPERAZIN-1-YLCARBONYL]-2,3-DIHYDRO- 1,4-BENZODIOXIN] gave an inhibition at 10 µM [2] of 100%.

With `O=C(Nc1ccccc1)C1COc2cc(O)ccc2O1` (centres unmarked) [Example 11, 6-HYDROXY-2-ANILINOCARBONYL-2,3-DIHYDRO-1,4-BENZODIOXIN] the inhibition at 10 µM [2] was 100%.

`O=C(C1=COc2ccc(O)cc2O1)N1CCN(C(c2ccc(F)cc2)c2ccc(F)cc2)CC1` [Example 2, 7-HYDROXY-2-{4-[BIS(4-FLUOROPHENYL)METHYL]PIPERAZIN-1-YLCARBONYL}-1,4-BENZODIOXIN] showed an inhibition at 10 µM [2] of 100%.

With `Oc1ccc2c(c1)OC=C(CN1CCN(C(c3ccc(F)cc3)c3ccc(F)cc3)CC1)O2` [Example 58, 6-HYDROXY-2-{4-[BIS-(4-FLUOROPHENYL)METHYL]PIPERAZIN-1- YLMETHYL}-1,4-BENZODIOXIN] the “Inhibiting activity, 5-HT2 receptor binding” value (5-HT2 receptors) was 79%, the IC50 (thoracic aorta of rats) was 600 nM and the “Reduction in the LDL-VLDL fraction” value [4] was 35%. For the same molecule, the “Reduction in the total cholesterol” value [4] was 33%.
